In article PMC4399389, “Identification of a laccase Glac15 from Ganoderma lucidum 77002 and its application in bioethanol production” (Biotechnology for Biofuels, 2015):

Legend:
Assay in all cases: oxidation, absorbance at […] nm
Format in all cases: biochemical, Ganoderma lucidum
[1] = tested on: T1, Glac15 (laccase, isoenzyme from G. lucidum 77002); conditions: optimum pH 4.5; 50 mM citrate-phosphate buffer; optimal temperature 45 °C; O2 as co-substrate
T1 construct: native secreted enzyme purified from culture filtrate (ultrafiltration, DEAE-Sepharose FF); signal peptide of 21 residues removed; N-terminus GIGPTTDLTISNADI; tryptic peptides matched Glac6 and Glac15 of strain Xiangnong No.1

[2] = tested on: T1, Glac15 (laccase, isoenzyme from G. lucidum 77002); conditions: optimum pH 2.5; 50 mM citrate-phosphate buffer; optimal temperature 50 °C; O2 as co-substrate
[3] = tested on: T1, Glac15 (laccase, isoenzyme from G. lucidum 77002); conditions: optimum pH 5.0; 50 mM citrate-phosphate buffer; optimal temperature 45 °C; O2 as co-substrate
[4] = tested on: T1, Glac15 (laccase, isoenzyme from G. lucidum 77002); conditions: optimum pH 5.0; 50 mM citrate-phosphate buffer; optimal temperature 55 °C; O2 as co-substrate
[5] = tested on: T1, Glac15 (laccase, isoenzyme from G. lucidum 77002); conditions: optimum pH 4.5; 50 mM citrate-phosphate buffer; optimal temperature 50 °C; O2 as co-substrate
[6] = tested on: T1, Glac15 (laccase, isoenzyme from G. lucidum 77002); conditions: optimum pH 4.5; 50 mM citrate-phosphate buffer; optimal temperature 45 °C; O2 as co-substrate; remark: listed apart in the source

For `COc1cccc(OC)c1O` [2,6-DMP, 2,6-dimethoxyphenol], the Km [1] was 120 µM.

Work on `CCn1c(=NN=c2sc3cc(S(=O)(=O)O)ccc3n2CC)sc2cc(S(=O)(=O)O)ccc21` [ABTS, 2,2′-azino-bis-(3-ethylbenzothiazoline-6-sulfonic acid)] yielded a Km [2] of 19 µM.

Compound `Oc1ccccc1O` [Catechol] has a Km [3] of 780 µM.

Work on `COc1ccccc1O` [Guaiacol] yielded a Km [4] of 790 µM.

`N[C@@H](Cc1ccc(O)c(O)c1)C(=O)O` [L-dopamine] gave a Km [5] of 890 µM.

`COc1cc(C=NN=Cc2cc(OC)c(O)c(OC)c2)cc(OC)c1O` [Syringaldazine] gave a Km [6] of 62 µM.
